Data on 40 compounds can be found in patent publication US11001590B2, “Pyrazolopyrimidine derivatives” (BAYER ANIMAL HEALTH GMBH, priority 2016, dated 2021).

Data set [1] concerns Dirofilaria immitis microfilariae. Kind of data set: In vitro assay 3: Dirofilaria immitis microfilariae (DIROIM L1), motility. The conditions noted are these: 72 h, reduction of motility vs negative control, 72 h incubation.
The target in the next data set is C. elegans Slo-1a (Caenorhabditis elegans, UniProt Q95V25). The data set is described as follows: In vitro assay 1: C. elegans Slo-1a, action at a recombinant C. elegans CHO cell line (membrane potential measurement).
Data set [2] can be described thus: log P by HPLC on reversed phase columns (Method L0; [a] acidic, [b] neutral range).
Procedure: Calibration was done with straight-chain alkan-2-ones (with 3 to 16 carbon atoms) with known log P values (measurement of log P values using retention times with linear interpolation between successive alkanones). Lambda-max-values were determined using UV-spectra from 200 nm to 400 nm and the peak values of the chromatographic signals.

The structures appear in SMILES notation.

Sequence of C. elegans Slo-1a (Q95V25 whole entry): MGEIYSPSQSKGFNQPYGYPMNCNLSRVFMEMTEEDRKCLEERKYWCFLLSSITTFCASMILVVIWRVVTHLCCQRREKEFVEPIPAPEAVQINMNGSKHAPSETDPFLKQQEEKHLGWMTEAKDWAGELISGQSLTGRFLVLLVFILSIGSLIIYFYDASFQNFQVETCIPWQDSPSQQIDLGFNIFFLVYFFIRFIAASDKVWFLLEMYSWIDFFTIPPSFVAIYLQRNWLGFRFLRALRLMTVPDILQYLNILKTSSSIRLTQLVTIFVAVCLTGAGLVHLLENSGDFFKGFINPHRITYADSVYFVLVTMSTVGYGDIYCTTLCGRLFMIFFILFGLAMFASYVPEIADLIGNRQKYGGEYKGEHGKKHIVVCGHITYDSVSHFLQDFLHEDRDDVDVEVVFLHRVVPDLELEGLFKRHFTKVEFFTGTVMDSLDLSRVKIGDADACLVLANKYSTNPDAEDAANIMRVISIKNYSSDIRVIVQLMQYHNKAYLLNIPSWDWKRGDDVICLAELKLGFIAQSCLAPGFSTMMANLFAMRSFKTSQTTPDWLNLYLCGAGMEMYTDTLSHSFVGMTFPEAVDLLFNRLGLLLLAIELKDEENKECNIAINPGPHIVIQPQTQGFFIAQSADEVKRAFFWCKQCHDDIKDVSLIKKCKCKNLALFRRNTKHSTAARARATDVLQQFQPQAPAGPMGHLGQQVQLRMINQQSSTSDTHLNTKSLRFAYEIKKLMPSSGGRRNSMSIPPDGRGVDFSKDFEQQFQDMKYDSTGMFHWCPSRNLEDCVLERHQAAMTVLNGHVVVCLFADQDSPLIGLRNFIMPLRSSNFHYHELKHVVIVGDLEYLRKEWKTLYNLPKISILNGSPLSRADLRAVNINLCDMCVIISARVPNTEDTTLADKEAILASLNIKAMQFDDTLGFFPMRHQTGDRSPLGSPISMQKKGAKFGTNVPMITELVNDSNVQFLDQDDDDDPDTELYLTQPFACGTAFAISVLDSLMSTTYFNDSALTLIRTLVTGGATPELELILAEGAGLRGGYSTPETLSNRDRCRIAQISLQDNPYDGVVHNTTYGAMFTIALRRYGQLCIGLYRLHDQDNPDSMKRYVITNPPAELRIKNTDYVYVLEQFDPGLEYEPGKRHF

As usually defined, the EC50 is the concentration needed to bring the measured effect to its halfway point. The chromatographic logP is a lipophilicity value derived from retention on a column. Consider `Cc1nn2c(C(C)C)c(C(=O)N[C@H]3CCc4ccccc43)cnc2c1-c1ccc(Br)cc1` [Example 207], for which the EC50 in data set [1] was under 10 µg/mL; on C. elegans Slo-1a, 50.1 nM. For the same compound, the chromatographic logP in data set [2] stood at 5.31.
On to `CCS(=O)(=O)c1nn2c(C(C)C)c(C(=O)N[C@H]3CCc4ccccc43)cnc2c1-c1cc(Cl)cc(Cl)c1` [Example 211], for which the EC50 was under 10 µg/mL in data set [1] and 1260 nM at C. elegans Slo-1a. In addition, the chromatographic logP in data set [2] came out at 4.62.
Regarding `Cc1nn2c(C(C)C)c(C(=O)N[C@H]3CCc4ccccc43)cnc2c1-c1ccc(C(F)F)cc1` [Example 334], the EC50 in data set [1] is under 10 µg/mL; at C. elegans Slo-1a it was 25.1 nM. Also, the chromatographic logP in data set [2] stood at 4.63.
Regarding `Cc1nn2c(C3CC3)c(C(=O)N[C@H]3CCOc4ccccc43)cnc2c1-c1cc(Cl)c(F)c(Cl)c1` [Example 476], the figures for the EC50 (in data set [1]; on C. elegans Slo-1a) were under 1 µg/mL and 6.31 nM, respectively. Also, in data set [2], the chromatographic logP was 4.95.
The corresponding values for `CC(C)c1c(C(=O)N[C@H]2CCc3ccccc32)cnc2c(-c3cccc(N(C)C)c3)c(C(F)F)nn12` [Example 427] are under 10 µg/mL, 20 nM and 4.3.
For `Cc1nn2c(C(C)C)c(C(=O)N[C@H]3CCOc4ccccc43)cnc2c1-c1ccc2cc[nH]c2c1` [Example 243], the EC50 in data set [1] was under 10 µg/mL; on C. elegans Slo-1a it was 631 nM. The compound also returned a chromatographic logP in data set [2] of 3.76.
The corresponding values for `CC(C)c1c(C(=O)N[C@H]2CCc3ccccc32)cnc2c(-c3cc(F)c(F)c(F)c3)c(C(F)(F)F)nn12` [Example 159] are under 10 µg/mL, 1000 nM and 5.4.
Regarding `Cc1nn2c(C3CC3)c(C(=O)N[C@H]3CCOc4ccccc43)cnc2c1-c1cc(Cl)cc(Cl)c1` [Example 469], the EC50 was under 0.1 µg/mL in data set [1] and 15.8 nM at C. elegans Slo-1a. In data set [2], this compound yielded a chromatographic logP of 4.96.
With `Cc1nn2c(C(C)C)c(C(=O)N[C@H]3CCOc4ccccc43)cnc2c1-c1ccc2c(c1)N(C)CC2` [Example 238], the results for the half-maximal effective concentration (EC50) (in data set [1]; on C. elegans Slo-1a) were under 10 µg/mL and 158 nM, respectively. In data set [2], this compound returned a chromatographic logP of 4.13.
The corresponding values for `Cc1nn2c(C(C)C)c(C(=O)N[C@H]3CCc4ccccc43)cnc2c1-c1cccc(Cl)n1` [Example 183] are under 10 µg/mL, 398 nM and 5.1.
The corresponding values for `CC(=O)Nc1cccc(-c2c(C)nn3c(C(C)C)c(C(=O)N[C@H]4CCc5ccccc54)cnc23)c1` [Example 298] are under 10 µg/mL, 1260 nM and 3.3.
Take `Cc1nn2c(C(C)C)c(C(=O)N[C@H]3CCc4ccccc43)cnc2c1-c1cccc(CN2CCN(C)CC2)c1` [Example 399]: the EC50 in data set [1] was under 10 µg/mL; at C. elegans Slo-1a, 7940 nM. The same compound gave a chromatographic logP in data set [2] of 1.98.
For `Cc1nn2c(N(C)C)c(C(=O)N[C@H]3CCOc4ccccc43)cnc2c1-c1cc(Cl)cc(Cl)c1` [Example 520], the EC50 in data set [1] is under 0.1 µg/mL; on C. elegans Slo-1a it was 7.94 nM. Besides, the chromatographic logP in data set [2] turned out to be 4.92.
`Cc1nn2c(C(C)C)c(C(=O)N[C@H]3CCc4ccccc43)cnc2c1-c1cccc(N2CCCC2)c1` [Example 329]: the EC50 was under 10 µg/mL in data set [1] and 25.1 nM on C. elegans Slo-1a. The chromatographic logP in data set [2] was determined as 5.44.
With `COc1cccc(-c2c(C)nn3c(C(C)C)c(C(=O)N[C@H]4CCOc5ccccc54)cnc23)c1Cl` [Example 247], the half-maximal effective concentration (EC50) was under 1 µg/mL in data set [1] and 10 nM on C. elegans Slo-1a. In addition, the chromatographic logP in data set [2] is 4.19.
Turning to `CCN(CC)Cc1cccc(-c2c(C)nn3c(C(C)C)c(C(=O)N[C@H]4CCc5ccccc54)cnc23)c1` [Example 355], the EC50 in data set [1] is under 10 µg/mL; at C. elegans Slo-1a, 2510 nM. Moreover, the chromatographic logP in data set [2] is 2.12.
In the case of `Cc1nn2c(C(C)C)c(C(=O)N[C@H]3CCOc4ccccc43)cnc2c1-c1cnccc1Cl` [Example 231], the results for the EC50 (in data set [1]; on C. elegans Slo-1a) were under 1 µg/mL and 15.8 nM, respectively. The same compound yielded a chromatographic logP in data set [2] of 3.9.
Consider `COCc1cccc(-c2c(C(F)(F)F)nn3c(C(C)C)c(C(=O)N[C@H]4CCOc5ccccc54)cnc23)c1` [Example 142], for which the concentration giving a half-maximal response (EC50) was under 10 µg/mL in data set [1] and 79.4 nM on C. elegans Slo-1a. The compound also returned a chromatographic logP in data set [2] of 4.6.
As to `Cc1nn2c(C(C)C)c(C(=O)N[C@H]3CCc4ccccc43)cnc2c1-c1cccc(COCC(F)(F)F)c1` [Example 367], the values for the EC50 (in data set [1]; on C. elegans Slo-1a) were under 10 µg/mL and 158 nM, respectively. In addition, the chromatographic logP in data set [2] was found to be 4.99.
As for `CSCc1cccc(-c2c(C)nn3c(C(C)C)c(C(=O)N[C@H]4CCc5ccccc54)cnc23)c1` [Example 388], the figures for the EC50 (in data set [1]; on C. elegans Slo-1a) were under 1 µg/mL and 7.94 nM, respectively. Moreover, in data set [2], the chromatographic logP is 5.
For `COc1cc(-c2c(C)nn3c(C(C)C)c(C(=O)N[C@H]4CCCc5ccccc54)cnc23)cc(C(F)(F)F)c1` [Example 363], the EC50 in data set [1] is under 10 µg/mL; at C. elegans Slo-1a, 63.1 nM. Moreover, the chromatographic logP in data set [2] was 5.7.
Take `CC(C)c1c(C(=O)N[C@H]2CCc3ccccc32)cnc2c(-c3cc(Cl)cc(C(F)(F)F)c3)c(C(F)(F)F)nn12` [Example 150]: the EC50 was under 10 µg/mL in data set [1] and 50.1 nM at C. elegans Slo-1a. The compound also showed a chromatographic logP in data set [2] of 6.22.
Turning to `CSc1nn2c(C(C)C)c(C(=O)N[C@H]3CCOc4ccccc43)cnc2c1-c1cc(Cl)cc(Cl)c1` [Example 202], the EC50 in data set [1] is under 10 µg/mL; on C. elegans Slo-1a, 25.1 nM. The compound further gave a chromatographic logP in data set [2] of 6.35.
For the compound `Cc1nn2c(C3CC3)c(C(=O)N[C@H]3CCc4ccccc43)cnc2c1-c1cccc(N2CC(C#N)C2)c1` [Example 460], the EC50 in data set [1] is under 10 µg/mL; on C. elegans Slo-1a it was 39.8 nM. Moreover, the chromatographic logP in data set [2] stood at 3.44.
For the compound `CC(C)c1c(C(=O)N[C@H]2CCOc3ccccc32)cnc2c(-c3cccc(OC(F)(F)F)c3)c(C(F)(F)F)nn12` [Example 137], the half-maximal effective concentration (EC50) in data set [1] is under 10 µg/mL; at C. elegans Slo-1a, 25.1 nM. This compound registered a chromatographic logP in data set [2] of 5.31.
As for `Cc1nn2c(C(C)C)c(C(=O)N[C@H]3CCc4ccccc43)cnc2c1-c1c(Cl)cccc1Cl` [Example 223], the EC50 in data set [1] was under 1 µg/mL; on C. elegans Slo-1a, 12.6 nM. The compound also displayed a chromatographic logP in data set [2] of 4.87.
As to `COc1cc(Cl)cc(-c2c(C)nn3c(C(C)C)c(C(=O)N[C@H]4CCCc5ccccc54)cnc23)c1` [Example 378], the EC50 is under 1 µg/mL in data set [1] and 50.1 nM on C. elegans Slo-1a. The same compound gave a chromatographic logP in data set [2] of 5.55.
Turning to `COc1cccc(-c2c(C(F)F)nn3c(C(C)C)c(C(=O)N[C@H]4CCc5ccccc54)cnc23)c1` [Example 428], the EC50 was under 0.1 µg/mL in data set [1] and 25.1 nM at C. elegans Slo-1a. For the same compound, the chromatographic logP in data set [2] came to 4.42.
In the case of `Cc1nn2c(C(C)C)c(C(=O)NC3COc4ccccc43)cnc2c1-c1c(F)cccc1F` (stereo not drawn) [Example 210], the values for the EC50 (in data set [1]; at C. elegans Slo-1a) were under 1 µg/mL and 158 nM, respectively. Also, the chromatographic logP in data set [2] turned out to be 3.99.
Turning to `COc1cc(-c2c(C)nn3c(C(C)C)c(C(=O)N[C@H]4CCc5ccccc54)cnc23)cc(C(F)(F)F)c1` [Example 312], the EC50 in data set [1] is under 10 µg/mL; on C. elegans Slo-1a it was 25.1 nM. The compound further yielded a chromatographic logP in data set [2] of 5.41.
With `Cc1nn2c(C(C)C)c(C(=O)N[C@H]3CCOc4ccccc43)cnc2c1-c1cccc(N2CC(C#N)C2)c1` [Example 444], the EC50 was under 10 µg/mL in data set [1] and 15.8 nM on C. elegans Slo-1a. In data set [2], this compound gave a chromatographic logP of 3.91.
Turning to `Cc1nn2c(C3CC3)c(C(=O)N[C@H]3CCOc4ccccc43)cnc2c1-c1ccc(F)c(F)c1` [Example 471], the figures for the EC50 (in data set [1]; on C. elegans Slo-1a) were under 0.1 µg/mL and 3.98 nM, respectively. The compound also returned a chromatographic logP in data set [2] of 3.86.
Consider `Cc1nn2c(C(C)C)c(C(=O)N[C@H]3CCOc4ccccc43)cnc2c1-c1ccc2c(c1)CC(=O)N2` [Example 252], for which the EC50 in data set [1] is under 10 µg/mL; on C. elegans Slo-1a, 1260 nM. The chromatographic logP in data set [2] stood at 2.87.
Turning to `CC(C)c1c(C(=O)N[C@H]2CCOc3ccccc32)cnc2c(-c3cc(Cl)c(F)c(Cl)c3)c(C(F)(F)F)nn12` [Example 197], the half-maximal effective concentration (EC50) was under 10 µg/mL in data set [1] and 501 nM at C. elegans Slo-1a. In data set [2], the chromatographic logP worked out at 5.48.
The corresponding values for `CCC(C)c1c(C(=O)N[C@H]2CCc3ccccc32)cnc2c(-c3c(F)cccc3Cl)c(C)nn12` (stereo partly drawn) [Example 222] are under 0.1 µg/mL, 39.8 nM and 4.98.
With `Cc1nn2c(C3CC3)c(C(=O)N[C@H]3CCOc4ccccc43)cnc2c1-c1ccnc(N2CCOCC2)c1F` [Example 527], the EC50 was under 10 µg/mL in data set [1] and 31.6 nM at C. elegans Slo-1a. For the same compound, the chromatographic logP in data set [2] worked out at 2.96.
With `COc1cccc(-c2c(C)nn3c(C(C)C)c(C(=O)N[C@H]4CCc5ccccc54)cnc23)n1` [Example 177, (S)—N-(2,3-Dihydro-1H-inden-1-yl)-7-isopropyl-3-(6-methoxypyridin-2-yl)-2-methylpyrazolo[1,5-a]pyrimidine-6-carboxamide], the EC50 in data set [1] was under 10 µg/mL; at C. elegans Slo-1a it was 158 nM. Further, the chromatographic logP in data set [2] was found to be 4.89.
As for `CC(C)c1c(C(=O)N[C@H]2CCc3ccccc32)cnc2c(-c3ccccc3Cl)c(C(F)F)nn12` [Example 435], the values for the EC50 (in data set [1]; on C. elegans Slo-1a) were under 0.1 µg/mL and 25.1 nM, respectively. The chromatographic logP in data set [2] was 4.43.
Take `Cc1nn2c(C(C)C)c(C(=O)N[C@H]3CCc4ccccc43)cnc2c1-c1cccc(OCC2CC2)c1` [Example 319]: the EC50 in data set [1] was under 1 µg/mL; at C. elegans Slo-1a, 25.1 nM. The chromatographic logP in data set [2] came out at 5.28.
`Cc1nn2c(C(C)C)c(C(=O)N[C@H]3CCc4ccccc43)cnc2c1-c1ccc(C(F)(F)F)cc1` [Example 332]: the figures for the concentration giving a half-maximal response (EC50) (in data set [1]; at C. elegans Slo-1a) were under 1 µg/mL and 15.8 nM, respectively. In addition, in data set [2], the chromatographic logP stood at 5.32.
